Read-outs that look alike come from different tables or passages of the source. Square brackets hold non-standard residues; d marks the D form. Peptide text beside a SMILES is read from it. * marks the point of attachment. aIle = CC[C@@H](C)[C@H](N)C(=O)O; Tic = O=C(O)[C@@H]1Cc2ccccc2CN1; Aoc(2) = CCCCCC[C@H](N)C(=O)O; Phg = N[C@H](C(=O)O)c1ccccc1; Tle = CC(C)(C)[C@H](N)C(=O)O; Pip = O=C(O)[C@@H]1CCCCN1; Nle = CCCC[C@H](N)C(=O)O; Orn = NCCC[C@H](N)C(=O)O; Aze = O=C(O)[C@@H]1CCN1; Nva = CCC[C@H](N)C(=O)O; Abu = CC[C@H](N)C(=O)O; Bn = c1ccc(C*)cc1
Tests used:
[1] = biological target: T1, purified porcine DP IV (Sus scrofa, UniProt P22411); experiment: Determination of IC50-values, Gly-Pro-pNA cleavage by DP IV; assay type: biochemical; conditions: Gly-Pro-pNA 0.4 mM, HEPES pH 7.6, 30° C.; read-out: IC50
T1 sequence (P22411 whole entry): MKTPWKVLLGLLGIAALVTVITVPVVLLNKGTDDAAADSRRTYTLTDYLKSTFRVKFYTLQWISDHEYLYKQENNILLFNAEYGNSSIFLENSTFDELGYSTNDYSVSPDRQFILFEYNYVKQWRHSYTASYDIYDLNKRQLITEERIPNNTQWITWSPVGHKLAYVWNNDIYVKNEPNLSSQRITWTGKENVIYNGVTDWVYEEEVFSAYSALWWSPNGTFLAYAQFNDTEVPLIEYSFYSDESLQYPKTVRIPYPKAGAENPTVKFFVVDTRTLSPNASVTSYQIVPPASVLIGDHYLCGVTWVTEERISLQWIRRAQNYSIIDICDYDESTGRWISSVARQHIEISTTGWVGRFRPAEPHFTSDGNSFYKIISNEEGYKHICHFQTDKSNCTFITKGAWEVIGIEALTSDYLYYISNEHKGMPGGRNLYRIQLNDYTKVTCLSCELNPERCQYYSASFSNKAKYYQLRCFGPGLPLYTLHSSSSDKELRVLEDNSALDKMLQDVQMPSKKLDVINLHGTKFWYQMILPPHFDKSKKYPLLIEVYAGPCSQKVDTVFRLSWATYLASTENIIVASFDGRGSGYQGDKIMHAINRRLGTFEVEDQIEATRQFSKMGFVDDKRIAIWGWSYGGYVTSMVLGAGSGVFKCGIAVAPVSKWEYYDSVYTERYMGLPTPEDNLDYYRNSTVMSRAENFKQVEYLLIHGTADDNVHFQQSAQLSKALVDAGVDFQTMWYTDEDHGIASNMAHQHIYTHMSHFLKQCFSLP
Description: (§1) 100 μl inhibitor stock solution were mixed with 100 μl buffer (HEPES pH 7.6) and 50 μl substrate (Gly-Pro-pNA, final concentration 0.4 mM) and preincubated at 30° C. Reaction was started by addition of 20 μl purified porcine DP IV. Formation of the product pNA was measured at 405 nm over 10 min using the HTS 7000 Plus plate reader (Perkin Elmer) and slopes were calculated. The final inhibitor concentrations ranged between 1 mM and 30 nM.
For calculation of IC50-values GraFit 4.0.13 (Erithacus Software) was used.

[2] = biological target: T1, purified porcine DP IV; experiment: Determination of Ki-values, Gly-Pro-pNA cleavage by DP IV; assay type: biochemical; conditions: Gly-Pro-pNA 0.05-0.4 mM
Description: as §1
Calculations were performed using the GraFit Software.

[3] = tested on: diabetic Zucker rats (fa/fa); experiment: Oral glucose tolerance test (OGTT) in diabetic Zucker rats; assay type: in vivo; conditions: 100 mg/kg b.w. p.o.; for Improvement of glucose tolerance: AUC test compound vs AUC Control; for AUC test compound (glucose, OGTT): OGTT 2 g/kg glucose
Description: N=30 male Zucker rats (fa/fa), mean age 11 weeks (5-12 weeks), mean body weight 350 g (150-400 g), were purchased from Charles River (Sulzfeld, Germany). They were kept for >12 weeks until all the fatty Zucker rats had the characteristics of manifest Diabetes mellitus.
After overnight fasting, the fatty Zucker rats were given placebo, positive control and test substance, respectively, via feeding tube orally (15 G, 75 mm; Fine Science Tools, Heidelberg, Germany) at −10 min. An oral glucose tolerance test (OGTT) with 2 g/kg b.w. glucose as a 40% solution (B. Braun Melsungen, Melsungen, Germany) was implemented at ±0 min. The glucose was administered via a second feeding tube. Arterial blood samples from the carotid catheter were collected at −30 min, −15 min, ±0 min and at 5, 10, 15, 20, 30, 40, 60, 90 and 120 min into 20 μl glass capillaries, which were placed in standard tubes filled with 1 ml solution for hemolysis (blood glucose measurement).
Blood glucose: Glucose levels were measured using the glucose oxidase procedure (Super G Glukosemeβgerät; Dr. Müller Gerätebau, Freital, Germany).

[4] = biological target: T2, plasma DP IV (Rattus norvegicus, UniProt P14740); experiment: Plasma DP IV activity after intravasal and oral administration in Wistar rats; assay type: in vivo; conditions: rat, Wistar rats, 100 mg/kg
T2 construct: The assay mixture consisted of 80 μl reagent and 20 μl plasma; from tissue; host or cells: plasma of Wistar rats
T2 sequence (P14740 37-767 limits assumed): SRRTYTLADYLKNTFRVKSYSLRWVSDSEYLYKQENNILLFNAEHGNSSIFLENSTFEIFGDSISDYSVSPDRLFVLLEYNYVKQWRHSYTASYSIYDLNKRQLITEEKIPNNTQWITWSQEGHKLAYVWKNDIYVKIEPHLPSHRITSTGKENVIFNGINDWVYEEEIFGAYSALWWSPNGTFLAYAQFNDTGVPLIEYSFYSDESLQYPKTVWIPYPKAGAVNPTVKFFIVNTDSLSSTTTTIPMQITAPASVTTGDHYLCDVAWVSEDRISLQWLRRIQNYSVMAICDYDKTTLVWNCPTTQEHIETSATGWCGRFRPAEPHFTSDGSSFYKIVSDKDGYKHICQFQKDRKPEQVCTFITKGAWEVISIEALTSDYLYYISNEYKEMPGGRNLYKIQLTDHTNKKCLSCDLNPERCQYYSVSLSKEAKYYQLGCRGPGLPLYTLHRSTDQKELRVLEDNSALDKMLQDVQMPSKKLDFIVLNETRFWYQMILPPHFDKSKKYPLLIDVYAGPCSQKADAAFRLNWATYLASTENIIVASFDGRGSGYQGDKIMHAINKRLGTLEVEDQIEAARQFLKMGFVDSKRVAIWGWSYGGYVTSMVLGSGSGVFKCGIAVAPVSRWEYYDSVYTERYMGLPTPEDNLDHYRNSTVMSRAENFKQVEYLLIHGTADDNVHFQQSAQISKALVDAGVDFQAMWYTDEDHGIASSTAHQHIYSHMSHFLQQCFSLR
Description: Rats with intact catheter function were given the test substances intravasal (intraarterial) or oral, respectively, in random order (N=3 Wistar rats in each group). As positive control, […]. isoleucine thiazolidine*fumarate were administered intravasal.
After overnight fasting, 100 μl samples of heparinized arterial blood were collected at −30, −5, and 0 min into ice-cooled Eppendorf tubes (see below). The test substances were dissolved freshly in 1.0 ml saline (0.154 mol/l) and were given at 0 min either oral via a feeding tube ([…], 75 mm; Fine Science Tools, Heidelberg, Germany) or intravasal. For the intravasal route, the catheter was immediately flushed with 30 μl saline and an additional 1 ml of saline was given orally via the feeding tube.
Arterial blood samples were taken thereafter at 5, 10 (only in a limited number of experiments), 20, 40, 60 and 120 min from the carotid catheter of the conscious unrestrained rats and were always given into ice cooled Eppendorf tubes (Eppendorf-Netheler-Hinz, Hamburg, Germany) filled with 10 μl 1 M citrate buffer pH 3.0 for prevention of further hydrolysis of tripeptides by plasma DP IV activity. Eppendorf tubes were centrifuged immediately (12000 rpm for 2 min, Hettich Zentrifuge EBA 12, Tuttlingen; Germany): The plasma fractions were store on ice until analysis or were deeply frozen at −20 ° C. until analysis.
Plasma DP IV activity: The assay mixture consisted of 80 μl reagent and 20 μl plasma. Kinetic measurements of the formation of the yellow product 4-nitroaniline were performed at 390 nm for 1 min at 30° C. after 2 min pre-incubation at the same temperature. The activity was expressed as arbitrary units [AU] and DP IV activity [mU/ml].
The absolute values of plasma DP IV activity, the relative change of plasma DP IV activity and the time and extent of maximal inhibition were calculated. Data presentation included the presentation of area under the curve (AUC), which was used for evaluation of extent of inhibition of plasma DP IV activity during the two hours of observation. AUC was calculated using the trapezoidal rule.
To compare relative changes of parameters under the conditions of different initial values of DP IV activity an uniform standardised mean (values) was set up at the beginning of the test (see Figures and Tables).
Statistical evaluations were performed with Microsoft Excel® 97. All variables are presented as mean and standard deviation (SD). Treatment groups were compared by Student's t-test, within-group changes by paired t-test. Two-tailed values of p<0.05 were considered significant.

Structure (SMILES) | IC50 [1] | Ki [2] | also measured
CCCCCC[C@H](N)C(=O)N1CCC[C@H]1C(=O)N[C@H](C(=O)O)[C@@H](C)CC [AOA-Pro-Ile, 2-Amino octanoic acid-Pro-Ile] (H-[Aoc(2)]-Pro-Ile-OH) | 42.1 µM | 12.6 µM | 
CC[C@H](N)C(=O)N1CCC[C@H]1C(=O)N[C@H](C(=O)O)[C@@H](C)CC [Abu-Pro-Ile] (H-[Abu]-Pro-Ile-OH; N-terminus and C-terminus assumed) | 34.3 µM | 8.75 µM | 
CC[C@H](C)[C@H](NC(=O)[C@@H]1CCCN1C(=O)[C@@H]1CCN1)C(=O)O [Aze−Pro-Ile, Aze-Pro-Ile] (H-[Aze]-Pro-Ile-OH; N-terminus and C-terminus assumed) | 72.8 µM | 20.5 µM | 
CC[C@H](C)[C@H](N)C(=O)N1CCC[C@H]1C(=O)N[C@H](C(=O)O)C(C)(C)C [Ile-Pro-t-butyl-Gly] (H-Ile-Pro-[Tle]-OH; N-terminus and C-terminus assumed) | 82.3 µM | 18.9 µM | Improvement of glucose tolerance [3]: 5.3%; AUC test compound (glucose, OGTT) [3]: 819.5 mmol·min/L
CC[C@@H](C)[C@H](NC(=O)[C@@H]1CCCN1C(=O)[C@@H](N)[C@@H](C)CC)C(=O)O [Ile−Pro-(allo)Ile, Ile-Pro-allo-Ile] | 15.4 µM | 5.22 µM | 
CCCC[C@H](N)C(=O)N1CCC[C@H]1C(=O)N[C@H](C(=O)O)[C@@H](C)CC [Nle−Pro-Ile, Nle-Pro-Ile] (H-[Nle]-Pro-Ile-OH; N-terminus and C-terminus assumed) | 21.9 µM | 9.6 µM | 
CCC[C@H](N)C(=O)N1CCC[C@H]1C(=O)N[C@H](C(=O)O)[C@@H](C)CC [Nva-Pro-Ile] (H-[Nva]-Pro-Ile-OH; N-terminus and C-terminus assumed) | 24.9 µM | 6.17 µM | 
CC[C@H](C)[C@H](NC(=O)[C@@H]1CCCN1C(=O)[C@@H](N)CCCN)C(=O)O [Orn-Pro-Ile] (H-[Orn]-Pro-Ile-OH; N-terminus and C-terminus assumed) | 216 µM |  | 
CC[C@H](C)[C@H](NC(=O)[C@@H]1CCCN1C(=O)[C@@H](N)c1ccccc1)C(=O)O [Phg-Pro-Ile] (H-[Phg]-Pro-Ile-OH; N-terminus and C-terminus assumed) | 154 µM |  | 
CC[C@H](C)[C@H](NC(=O)[C@@H]1CCCN1C(=O)[C@@H]1CCCCN1)C(=O)O [Pip-Pro-Ile] (H-[Pip]-Pro-Ile-OH; N-terminus and C-terminus assumed) | > 100000 µM |  | 
CC[C@H](C)[C@H](NC(=O)[C@@H]1CCCN1C(=O)[C@@H](N)COCc1ccccc1)C(=O)O [Ser(Bzl)-Pro-Ile] (H-Ser(Bn)-Pro-Ile-OH; N-terminus and C-terminus assumed) | 67.8 µM | 21.6 µM | 
CC[C@H](C)[C@H](NC(=O)[C@@H]1CCCN1C(=O)[C@@H]1Cc2ccccc2CN1)C(=O)O [Tic-Pro-Ile] (H-[Tic]-Pro-Ile-OH; N-terminus and C-terminus assumed) | 800 µM |  | 
CC[C@@H](C)[C@H](NC(=O)[C@@H]1CCCN1C(=O)[C@@H](N)Cc1ccc(O)cc1)C(=O)O [Tyr-Pro-(allo)Ile, Tyr-Pro-allo-Ile] (H-Tyr-Pro-[aIle]-OH; N-terminus and C-terminus assumed) | 64.1 µM | 18.2 µM | 
CC[C@@H](C)[C@H](NC(=O)[C@@H]1CCCN1C(=O)[C@@H](N)C(C)C)C(=O)O [Val-Pro-(allo)Ile, Val-Pro-allo-Ile] | 18 µM | 9.54 µM | 
CC(C)[C@H](N)C(=O)N1CCC[C@H]1C(=O)N[C@H](C(=O)O)C(C)(C)C [Val-Pro-t-butyl-Gly] (H-Val-Pro-[Tle]-OH; N-terminus and C-terminus assumed) |  | 19.6 µM | Improvement of glucose tolerance [3]: 16.5%; AUC test compound (glucose, OGTT) [3]: 722.4 mmol·min/L
CC(C)(C)[C@H](N)C(=O)N1CCC[C@H]1C(=O)NCC(=O)O [t-butyl-Gly-Pro-Gly] (H-[Tle]-Pro-Gly-OH; N-terminus and C-terminus assumed) | 56.3 µM | 15.1 µM | 
CC[C@H](C)[C@H](NC(=O)[C@@H]1CCCN1C(=O)[C@@H](N)C(C)(C)C)C(N)=O [t-butyl-Gly-Pro-Ile-NH2, t-butyl-Gly-Pro-Ile-amide] (H-[Tle]-Pro-Ile-NH2; N-terminus assumed) | 22.9 µM | 5.6 µM | 
CC(C)[C@H](NC(=O)[C@@H]1CCCN1C(=O)[C@@H](N)C(C)(C)C)C(=O)O [t-butyl-Gly-Pro-Val] (H-[Tle]-Pro-Val-OH; N-terminus and C-terminus assumed) | 13.8 µM | 3.1 µM | inhibition at 100 mg/kg ([4]; iv, i.v., read-out: DPIV inhibition at tmax, i.v.): 72%; inhibition at 100 mg/kg ([4]; po, p.o., read-out: DPIV inhibition at tmax, p.o.): 25%
CC(C)(C)[C@H](N)C(=O)N1CCC[C@H]1C(=O)N[C@H](C(=O)O)C(C)(C)C [t-butyl-Gly-Pro-t-butyl-Gly] (H-[Tle]-Pro-[Tle]-OH; N-terminus and C-terminus assumed) | 24.5 µM | 14.1 µM | 

From patent publication US20030135023A1, “Peptide structures useful for competitive modulation of dipeptidyl peptidase IV catalysis” (priority 2001, published 2003)
